{
  "source": "patent US20240125768A1",
  "about": "“METHODS FOR MODULATING A SRC-1 CONDENSATE” (ETERN BIOPHARMA (SHANGHAI) CO., LTD., priority 2021, published 2024)",
  "key": {"SRC-1": {"tested_on": "SRC-1", "experiment": "Biolayer interferometry (BLI)", "format": "binding", "conditions": "biotin labeled EVG on streptavidin biosensors, purified SRC-1 protein", "procedure": "FIG. 7R illustrates bio-layer interferometry (BLI) assays were performed with purified SRC-1 protein and EVG. Biotin labeled EVG was immobilized on the streptavidin biosensors and dipped into wells containing increasing concentrations of SRC-1 protein.\nThe binding between EVG and SRC1 was examined using BLI Octet RED96 (ForteEio Inc., Menlo Park, CA). Streptavidin biosensors (ForteBio Inc.) were pre-soaked (30 min) in assay buffer (20 mM TrisHCl pH8.0, 150 mM NaCl and 1% DMSO), then coated in an assay buffer containing 100 uM EVG-biotin for 7 min. As a control, sensors were incubated in an assay buffer containing 100 uM Biocytin, followed by a 6 min wash with assay buffer containing 1% BSA and 0.1% Tween20. Indicated concentrations of truncated SRC1protein ([…], 0 μg/ml) were diluted in assay buffer containing 1% BSA/0.1% Tween20 and flowed through biosensors coated with Bio-EVG or biocytin for 5 min. A 5 min dissociation was followed. Data was analyzed using OctetRED analysis software."}, "SRC-1 phase separation": {"target": "T1, SRC-1 phase separation (Homo sapiens, UniProt Q15788)", "T1 construct": "expressed in transfected cells; host or cells: H1299", "T1 sequence (Q15788 whole entry)": "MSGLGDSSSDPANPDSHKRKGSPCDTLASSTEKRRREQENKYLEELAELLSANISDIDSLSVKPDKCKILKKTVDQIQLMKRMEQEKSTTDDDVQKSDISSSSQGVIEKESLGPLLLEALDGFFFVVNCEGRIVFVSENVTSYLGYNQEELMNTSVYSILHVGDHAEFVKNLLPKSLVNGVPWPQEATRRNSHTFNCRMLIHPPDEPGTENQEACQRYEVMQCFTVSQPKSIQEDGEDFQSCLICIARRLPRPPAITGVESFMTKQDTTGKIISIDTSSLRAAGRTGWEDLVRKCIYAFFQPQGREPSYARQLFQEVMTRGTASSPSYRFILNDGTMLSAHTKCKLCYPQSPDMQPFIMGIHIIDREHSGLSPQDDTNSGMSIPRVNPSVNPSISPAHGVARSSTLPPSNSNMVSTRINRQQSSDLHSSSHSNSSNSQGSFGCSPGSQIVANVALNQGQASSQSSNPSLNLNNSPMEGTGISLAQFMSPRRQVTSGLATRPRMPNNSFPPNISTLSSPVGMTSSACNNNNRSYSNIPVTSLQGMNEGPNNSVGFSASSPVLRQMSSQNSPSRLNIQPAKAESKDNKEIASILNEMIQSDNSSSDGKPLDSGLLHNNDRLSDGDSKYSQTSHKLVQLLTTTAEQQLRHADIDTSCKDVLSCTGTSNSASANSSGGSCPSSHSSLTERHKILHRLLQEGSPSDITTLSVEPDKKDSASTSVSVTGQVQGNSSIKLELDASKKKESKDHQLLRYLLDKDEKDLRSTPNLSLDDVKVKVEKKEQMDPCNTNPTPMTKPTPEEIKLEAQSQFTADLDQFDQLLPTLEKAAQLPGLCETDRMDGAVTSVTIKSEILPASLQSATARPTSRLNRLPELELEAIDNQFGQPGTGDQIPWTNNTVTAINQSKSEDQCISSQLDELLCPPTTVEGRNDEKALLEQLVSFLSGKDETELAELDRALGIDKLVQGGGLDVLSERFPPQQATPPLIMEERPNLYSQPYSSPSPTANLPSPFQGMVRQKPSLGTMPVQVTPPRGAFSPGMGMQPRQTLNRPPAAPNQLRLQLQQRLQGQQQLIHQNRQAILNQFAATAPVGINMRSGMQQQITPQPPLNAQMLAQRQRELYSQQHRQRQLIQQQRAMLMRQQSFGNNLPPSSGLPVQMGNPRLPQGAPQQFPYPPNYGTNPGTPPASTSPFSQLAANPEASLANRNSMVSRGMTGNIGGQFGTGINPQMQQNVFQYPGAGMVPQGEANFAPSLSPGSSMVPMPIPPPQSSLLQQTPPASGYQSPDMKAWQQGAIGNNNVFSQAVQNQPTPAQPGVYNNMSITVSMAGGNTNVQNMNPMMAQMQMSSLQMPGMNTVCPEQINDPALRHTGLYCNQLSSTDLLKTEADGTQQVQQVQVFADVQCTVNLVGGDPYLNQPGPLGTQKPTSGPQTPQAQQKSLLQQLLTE", "experiment": "High content image of mScarlet-SRC-1 puncta in H1299 cells", "format": "cell-based", "conditions": "20 μM", "procedure": "FIG. 7Q illustrates quantification result of high content image data for mScarlet-SRC-1 puncta in H1299 cells treated w/o 20 μM EVG. ***p<0.001.\nEight hours after transfection, H1299 cells expressing mScarlet-SRC-1 were seeded in 24-well glass bottom plate (Cellvis P24-1.5H-N) and EVG was added two hours later. Images were obtained with the Operetta CLSTM high-content cell imaging analysis system (PerkinElmer Inc., Waltham, MA, USA). The 63× objective lens was applied in each condition. Data was analyzed by images collected from over 100 representative fields in each group. The spots quantification was performed based on the area and intensity of the spots through mScarlet channel. GraphPad Prism is used to plot and analyze the high content image results."}, "YAP [1]": {"tested_on": "YAP", "experiment": "Anti-YAP immunofluorescence staining in A549 cells (YAP nuclear translocation)", "format": "cell-based", "conditions": "anti-YAP antibody and DAPI", "from_the_text": "FIG. 7H illustrates A549 cells treated with DMSO, EVG or PC(Positive compound) were stained with anti-YAP antibody and DAPI. […] Scale bar represents 40 μm."}, "YAP [2]": {"tested_on": "YAP", "experiment": "YAP reporter cell-based screen of FDA-approved drugs (luciferase, qPCR validation)", "conditions": "YAP reporter cell-based screen in a library of FDA-approved drugs", "from_the_text": "FIG. 7B illustrates high-throughput screening results. 449 FDA-approved compounds were screened and evaluated by the z-factor of cell viability and luciferase activity (Blue dots: screened compounds; red dots: positive compounds). The screening criteria is luciferase z-factor <−4 and cell viability >−4. (Positive compound, PC: Fedratinib)\nFIG. 7C illustrates qPCR analysis examining the expression of YAP-targeted CTGF and CYR61 was used to validate candidate positive compounds from the screening. Error bars show mean±s.e.m. (n=2).\nFIG. 7D illustrates the qPCR analysis of YAP target genes in SF268 cells treated with DMSO or 20 µM EVG for 24 h. Error bars show mean±s.e.m. (n=3).\nYAP binding sites were cloned into the NheI and HindIII sites of the pGL4.76 basic vector (Promega) containing heat shock basal promoter. Luciferase activity was measured using the Renilla-Glo® Luciferase Assay System (Promega). Cell viability was measured using CellTiter-Glo® One Solution Assay (Promega). Relative luciferase activity=luciferase activity/cell viability.\nCells were treated with compounds for indicated periods, then total RNAs were extracted with TRIzol™ Reagent (15596018, Invitrogen) and reverse-transcripted using the High efficient cDNA synthesis master mix (FSQ-301, TOYOBO). Quantitative RT-PCR was performed with […] SYBR® Premix Ex Taq™ (RR420, Takara). […]"}, "[3]": {"tested_on": "RNA polymerase II phosphorylated at Ser 5 (CTD)", "experiment": "Immunofluorescence of RNA pol II-S5P at TEAD puncta in H1299 cells", "format": "cell-based", "conditions": "H1299 cells co-expressing YAP5SA, TEAD4-mTagBFP, mNeoGreen-SRC1; 20 μM", "procedure": "FIG. 7 M illustrates immunofluorescence staining with anti-H3K27ac (red,top) and anti-RNA pol II-S5P (red, bottom) in H1299 cells co-expressing YAP5SA, TEAD4-mTagBFP(blue) and mNeoGreen-SRC1(green) treated with 20 μM EVG. EVG impaired the SRC-1 LLPS. Transcription active markerH3K27ac and active RNA polymerase II phosphorylated at Ser 5 of CTD were not enriched in SRC-1 condensates. Scale bar, 5 μm.\nCells were fixed with 4% PFA for 15 minutes at room temperature. Cells were subsequently washed with PBS (3×3 min) and blocked in PBS/BSA (3%)/Triton X-100 (0.3%) at room temperature for 60 minutes. Cells were rinsed in PBS and incubated with anti-H3K27ac (ab4729, Abcam, 1:100), anti-RNA Pol II-S5P antibody (#04-1572, Millipore, 1:200) in PBS/BSA (1%) overnight at 4° C. Cells were washed with PBST (1×PBS+Tween20 0.2%, 3×5 min) and incubated with the secondary antibody for 1 hours at room temperature. After washing with PBST(3×5 min), cells were stained with DAPI."}, "lung cancer cell lines": {"tested_on": "lung cancer cell lines", "experiment": "Cell proliferation of lung cancer cell lines", "format": "cell-based", "procedure": "FIG. 7V illustrates cell proliferation (lung cancer cells and normal cells) affected by the treatment with elvitegravir. Error bars show mean±s.e.m. (n=3).\nAfter 6 days [or other time period as indicated] culture, cell viability was measured using CellTiter-Glo® Luminescent Cell Viability Assay (Promega, G7572) and DMSO group was used as normalization to calculate half maximal inhibitory concentration (IC50) using Graphpad Prism software."}},
  "note": "Entries after “also recorded” stand apart in the source; their conditions may differ.",
  "data": [
    {"compound": "COc1cc2c(cc1Cc1cccc(Cl)c1F)c(=O)c(C(=O)O)cn2[C@H](CO)C(C)C", "note": "[EVG, 6-[(3-chloro-2-fluorophenyl)methyl]-1-[(2S)-1-hydroxy-3-methylbutan-2-yl]-7-methoxy-4-oxoquinoline-3-carboxylic acid]", "values": [
      {"measurement": "binding to SRC-1 (BLI)", "setting": "SRC-1", "value": "directly binds"},
      {"measurement": "SRC-1 phase separation, high content image (mScarlet-SRC-1 puncta)", "setting": "SRC-1 phase separation", "value": "inhibitory effects"},
      {"measurement": "YAP nuclear translocation", "setting": "YAP [1]", "value": "remained in nucleus; also recorded: unaffected"},
      {"measurement": "YAP activity", "setting": "YAP [2]", "value": "suppress YAP activity"},
      {"measurement": "RNA polymerase II phosphorylated at Ser 5 (CTD) at TEAD puncta", "setting": "[3]", "value": "no effect"},
      {"measurement": "proliferation of lung cancer cell lines", "setting": "lung cancer cell lines", "value": "effectively inhibited"}
    ]}
  ]
}
